From patent publication US20240343704A1, “HALO-SUBSTITUTED AMINO PYRIDINE COMPOUNDS AS INHIBITORS OF THE HAEMATOPOIETIC PROGENITOR KINASE 1 (HPK1)” (priority 2021, published 2024)

Tests used:
Lck (h) = Lck (h) (Homo sapiens, UniProt P06239); assay: Lck Human  Kinase Enzymatic Radiometric Assay; format: biochemical; settings: read-out: Lck IC50 nM Range*
Method in brief: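 Substrate 33P-incorporation measured by scintillation counting after spotting on P30 filtermat and phosphoric acid washes. Human Lck reacted 40 min at RT in 50 mM Tris pH 7.5 with 10 mM MgAcetate, [gamma-33P]-ATP, 250 uM Cdc2 peptide, 0.1 mM EGTA and 0.1 mM Na3VO4.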

[1] = target: T1, Recombinant (1-346) HPK1 (h) (Homo sapiens, UniProt Q92918); assay: HPK1 Human STE Kinase Enzymatic Radiometric Assay; format: biochemical; settings: read-out: HPK1 IC50 nM Range*
T1 construct: Recombinant (1-346) HPK1 (h) is incubated with 8 mM MOPS pH 7.0
T1 sequence (Q92918 1-346): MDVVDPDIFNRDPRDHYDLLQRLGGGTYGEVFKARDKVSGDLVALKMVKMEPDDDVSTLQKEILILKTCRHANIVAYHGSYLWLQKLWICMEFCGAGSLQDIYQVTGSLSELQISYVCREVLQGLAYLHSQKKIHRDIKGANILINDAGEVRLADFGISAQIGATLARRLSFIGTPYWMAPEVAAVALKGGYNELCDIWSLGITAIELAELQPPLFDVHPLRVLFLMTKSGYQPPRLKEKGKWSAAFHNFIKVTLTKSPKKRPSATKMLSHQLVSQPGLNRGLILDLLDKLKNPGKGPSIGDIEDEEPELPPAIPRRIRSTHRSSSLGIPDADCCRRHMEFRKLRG
Procedure: A stock solution of 10 mM of test compound is prepared in DMSO. The compound plate was prepared by 3-fold and 9-point serial dilutions. […] The reaction is initiated by The addition of the Mg/ATP mix. After incubation for 40 minutes at RT, the reaction is stopped by the addition of phosphoric acid to a concentration of 0.5%.

Lck (h), sequence (P06239 whole entry): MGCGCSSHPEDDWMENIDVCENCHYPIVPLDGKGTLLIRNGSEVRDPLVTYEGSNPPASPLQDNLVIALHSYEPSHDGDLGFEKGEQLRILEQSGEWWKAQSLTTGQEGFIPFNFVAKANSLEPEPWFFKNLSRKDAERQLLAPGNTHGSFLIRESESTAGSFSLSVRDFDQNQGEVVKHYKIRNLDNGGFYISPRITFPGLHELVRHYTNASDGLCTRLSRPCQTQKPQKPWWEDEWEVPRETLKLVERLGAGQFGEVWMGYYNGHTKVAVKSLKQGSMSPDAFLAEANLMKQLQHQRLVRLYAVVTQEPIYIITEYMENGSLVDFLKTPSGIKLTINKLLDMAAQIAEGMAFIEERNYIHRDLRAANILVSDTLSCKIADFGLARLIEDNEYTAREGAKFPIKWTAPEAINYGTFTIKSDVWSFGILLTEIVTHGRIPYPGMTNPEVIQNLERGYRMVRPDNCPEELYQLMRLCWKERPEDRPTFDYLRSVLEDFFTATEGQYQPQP

Compound | IC50 (Lck (h)) [nM] | IC50 [1] [nM]
CC(C)N1CCc2ccc(-c3cc(-c4ccc5c(c4)CCNC5=O)c(N)nc3F)cc2C1 [I-335, 6-(2-amino-6-fluoro-5-(2-isopropyl-1,2,3,4-tetrahydroisoquinolin-7-yl)pyridin-3-yl)-3,4-dihydroisoquinolin-1(2H)-one] | > 1000 | 11 to 100
CC(C)N1CCN(c2ccc(-c3cc(-c4cc(F)c5c(c4)CCNC5=O)c(N)nc3F)cc2)CC1 [I-336, 6-(2-amino-6-fluoro-5-(4-(4-isopropylpiperazin-1-yl)phenyl)pyridin-3-yl)-8-fluoro-3,4-dihydroisoquinolin-1(2H)-one] | 101 to 1000 | 0.1 to 10
Nc1nc(F)c(-c2ccc(OC3CCN(C(=O)CC4CC4)CC3)cc2)cc1-c1ccc2c(c1)CCNC2=O [I-337, 6-(2-amino-5-(4-((1-(2-cyclopropylacetyl)piperidin-4-yl)oxy)phenyl)-6-fluoropyridin-3-yl)-3,4-dihydroisoquinolin-1(2H)-one] | > 1000 | 11 to 100
Nc1nc(F)c(-c2ccc(OC3CCN(C4COC4)CC3)cc2)cc1-c1ccc2c(c1)CCNC2=O [I-338, 6-(2-amino-6-fluoro-5-(4-((1-(oxetan-3-yl)piperidin-4-yl)oxy)phenyl)pyridin-3-yl)-3,4-dihydroisoquinolin-1(2H)-one] | > 1000 | 11 to 100
Nc1nc(F)c(-c2ccc(OC3CNC3)cc2)cc1-c1cc2c(cc1F)C(=O)NCC2 [I-339, 6-(2-amino-5-(4-(azetidin-3-yloxy)phenyl)-6-fluoropyridin-3-yl)-7-fluoro-3,4-dihydroisoquinolin-1(2H)-one 2,2,2-trifluoroacetate] | > 1000 | 11 to 100
Nc1nc(F)c(-c2ccc(C3(F)CNC3)cc2)cc1-c1ccc2c(c1)CCNC2=O [I-340, 6-(2-amino-6-fluoro-5-(4-(3-fluoroazetidin-3-yl)phenyl)pyridin-3-yl)-3,4-dihydroisoquinolin-1(2H)-one 2,2,2-trifluoroacetate] | > 1000 | 0.1 to 10
CC(=O)N1CC(Oc2ccc(-c3cc(-c4cc5c(cc4F)C(=O)NCC5)c(N)nc3F)cc2)C1 [I-341, 6-(5-(4-((1-acetylazetidin-3-yl)oxy)phenyl)-2-amino-6-fluoropyridin-3-yl)-7-fluoro-3,4-dihydroisoquinolin-1(2H)-one] | > 1000 | 11 to 100
CC(=O)N1CC(F)(c2ccc(-c3cc(-c4ccc5c(c4)CCNC5=O)c(N)nc3F)cc2)C1 [I-342, 6-(5-(4-(1-acetyl-3-fluoroazetidin-3-yl)phenyl)-2-amino-6-fluoropyridin-3-yl)-3,4-dihydroisoquinolin-1(2H)-one] | > 1000 | 0.1 to 10
CN1C[C@H]2C[C@@]2(c2ccc(-c3cc(-c4cc5c(cc4F)C(=O)NCC5)c(N)nc3F)cc2)C1 [I-343, 6-(2-amino-6-fluoro-5-(4-((1R,5S)-3-methyl-3-azabicyclo[3.1.0]hexan-1-yl)phenyl)pyridin-3-yl)-7-fluoro-3,4-dihydroisoquinolin-1(2H)-one] | > 1000 | 0.1 to 10
CN1C[C@@H]2C[C@]2(c2ccc(-c3cc(-c4cc5c(cc4F)C(=O)NCC5)c(N)nc3F)cc2)C1 [I-344, 6-(2-amino-6-fluoro-5-(4-((1S,5R)-3-methyl-3-azabicyclo[3.1.0]hexan-1-yl)phenyl)pyridin-3-yl)-7-fluoro-3,4-dihydroisoquinolin-1(2H)-one] | > 1000 | 0.1 to 10
CC(C)N1CCN(c2ccc(-c3cc(-c4ccc5c(c4)CCNC5=O)c(N)nc3F)c(F)c2F)CC1 [I-345, 6-(2-amino-5-(2,3-difluoro-4-(4-isopropylpiperazin-1-yl)phenyl)-6-fluoropyridin-3-yl)-3,4-dihydroisoquinolin-1(2H)-one] | > 1000 | 0.1 to 10
Nc1nc(F)c(-c2ccc(N3CCS(=O)(=O)CC3)cc2)cc1-c1cc2c(cc1F)C(=O)NCC2 [I-346, 6-(2-amino-5-(4-(1,1-dioxidothiomorpholino)phenyl)-6-fluoropyridin-3-yl)-7-fluoro-3,4-dihydroisoquinolin-1(2H)-one] | > 1000 | 0.1 to 10
Nc1nc(F)c(-c2ccc(N3CCSCC3)cc2)cc1-c1cc2c(cc1F)C(=O)NCC2 [I-347, 6-(2-amino-6-fluoro-5-(4-thiomorpholinophenyl)pyridin-3-yl)-7-fluoro-3,4-dihydroisoquinolin-1(2H)-one] | > 1000 | 0.1 to 10
Nc1nc(F)c(-c2ccc(OC3CCN(C(=O)CCCC[C@@H]4SC[C@@H]5NC(=O)N[C@@H]54)CC3)cc2)cc1-c1ccc2c(c1)CCNC2=O [I-348, (3aS,4S,6aR)-4-(5-(4-(4-(6-amino-2-fluoro-5-(1-oxo-1,2,3,4-tetrahydroisoquinolin-6-yl)pyridin-3-yl)phenoxy)piperidin-1-yl)-5-oxopentyl)tetrahydro-1H-thieno[3,4-d]imidazol-2(3H)-one] | > 1000 | 0.1 to 10
CC(C)N1CCN(c2ccc(-c3cc(-c4cc5c(cc4Cl)C(=O)NCC5)c(N)nc3F)cc2)CC1 [I-349, 6-(2-amino-6-fluoro-5-(4-(4-isopropylpiperazin-1-yl)phenyl)pyridin-3-yl)-7-chloro-3,4-dihydroisoquinolin-1(2H)-one] | > 1000 | 0.1 to 10
COCCN1CCC(c2ccc(-c3cc(-c4cc(F)c5c(c4)CCNC5=O)c(N)nc3F)cc2)CC1 [I-350, 6-(2-amino-6-fluoro-5-(4-(1-(2-methoxyethyl)piperidin-4-yl)phenyl)pyridin-3-yl)-8-fluoro-3,4-dihydroisoquinolin-1(2H)-one] | 101 to 1000 | 0.1 to 10
CC(C)[C@@H]1CN(c2ccc(-c3cc(-c4cc(F)c5c(c4)CCNC5=O)c(N)nc3F)cc2)CCO1 [I-351, (R)-6-(2-amino-6-fluoro-5-(4-(2-isopropylmorpholino)phenyl)pyridin-3-yl)-8-fluoro-3,4-dihydroisoquinolin-1(2H)-one] | > 1000 | 0.1 to 10
CN1C[C@H]2C[C@@]2(c2ccc(-c3cc(-c4cc(F)c5c(c4)CCNC5=O)c(N)nc3F)cc2)C1 [I-352, 6-(2-amino-6-fluoro-5-(4-((1R,5S)-3-methyl-3-azabicyclo[3.1.0]hexan-1-yl)phenyl)pyridin-3-yl)-8-fluoro-3,4-dihydroisoquinolin-1(2H)-one] | > 1000 | 0.1 to 10
CN1C[C@@H]2C[C@]2(c2ccc(-c3cc(-c4cc(F)c5c(c4)CCNC5=O)c(N)nc3F)cc2)C1 [I-353, 6-(2-amino-6-fluoro-5-(4-((1S,5R)-3-methyl-3-azabicyclo[3.1.0]hexan-1-yl)phenyl)pyridin-3-yl)-8-fluoro-3,4-dihydroisoquinolin-1(2H)-one] | 101 to 1000 | 0.1 to 10
COc1cc(-c2cc(-c3ccc(N4CCN(C(C)C)CC4)cc3)c(F)nc2N)cc2c1C(=O)NCC2 [I-354, 6-(2-amino-6-fluoro-5-(4-(4-isopropylpiperazin-1-yl)phenyl)pyridin-3-yl)-8-methoxy-3,4-dihydroisoquinolin-1(2H)-one] | 11 to 100 | 101 to 1000
CC(C)N1CCN(c2ccc(-c3cc(-c4cc5c(c(N(C)C)c4)C(=O)NCC5)c(N)nc3F)cc2)CC1 [I-355, 6-(2-amino-6-fluoro-5-(4-(4-isopropylpiperazin-1-yl)phenyl)pyridin-3-yl)-8-(dimethylamino)-3,4-dihydroisoquinolin-1(2H)-one] | > 1000 | 101 to 1000
CNc1cc(-c2cc(-c3ccc(N4CCN(C(C)C)CC4)cc3)c(F)nc2N)cc2c1C(=O)NCC2 [I-356, 6-(2-amino-6-fluoro-5-(4-(4-isopropylpiperazin-1-yl)phenyl)pyridin-3-yl)-8-(methylamino)-3,4-dihydroisoquinolin-1(2H)-one] | 101 to 1000 | 11 to 100
CC(C)N1CCN(c2ccc(-c3cc(-c4cc(N)c5c(c4)CCNC5=O)c(N)nc3F)cc2)CC1 [I-357, 8-amino-6-(2-amino-6-fluoro-5-(4-(4-isopropylpiperazin-1-yl)phenyl)pyridin-3-yl)-3,4-dihydroisoquinolin-1(2H)-one] | 101 to 1000 | 101 to 1000
CC(C)N1CCN(c2ccc(-c3cc(-c4ccc5c(c4)OCCNC5=O)c(N)nc3F)cc2)CC1 [I-358, 8-(2-amino-6-fluoro-5-(4-(4-isopropylpiperazin-1-yl)phenyl)pyridin-3-yl)-3,4-dihydrobenzo[f][1,4]oxazepin-5(2H)-one] | > 1000 | 0.1 to 10
Nc1nc(F)c(-c2ccc(N3CCS(=O)(=O)CC3)cc2)cc1-c1cc(F)c2c(c1)CCNC2=O [I-359, 6-(2-amino-5-(4-(1,1-dioxidothiomorpholino)phenyl)-6-fluoropyridin-3-yl)-8-fluoro-3,4-dihydroisoquinolin-1(2H)-one] | > 1000 | 0.1 to 10
CC(C)N1CCN(c2ccc(-c3cc(-c4ccc5c(=O)[nH]cnc5c4)c(N)nc3F)cc2)CC1 [I-362, 7-(2-amino-6-fluoro-5-(4-(4-isopropylpiperazin-1-yl)phenyl)pyridin-3-yl)quinazolin-4(3H)-one] | > 1000 | 0.1 to 10
